Tested on: Balb/c mice
Assay: Measurement of liver fatigue (serum GOT, GPT, liver TBARS) after water immersion and sleep disturbance
Format: in vivo
Conditions: 8 mg per kilogram of body weight orally once daily during two days of water immersion
Method: The second test is measurement of liver fatigue. This is described in detail below in Example 2. […] In a liver of this model, GOT and GPT levels increased, compared with those of a normally-reared group. GOT (glutamic oxalacetic transaminase) and GPT (glutamic pyruvic transaminase), which are enzymes present in hepatic cells, are known to escape into blood when hepatic cells are damaged. Therefore, a level of damage on the liver is determined by measuring GOT and GPT in blood. […] It is inferred that the long-term general fatigue condition caused alteration in liver function, disruption of oxygen reduction system balance, and the like to result in accumulation of lipid peroxide. This is considered to support the fact that this model is an organ fatigue model.
That is to say, since this animal model is also an organ fatigue model, anti-fatigue action against organ fatigue would be confirmed if it is observed that administration of the test substance, for instance, returns a changed organ fatigue marker, such as GOT, GPT, and TBARS mentioned above, to a normal level and reduces change in the organ markers. Such anti-fatigue action is considered to regulate overall activity of internal organs to condition metabolism, thereby being involved in reduction of physical and mental fatigue stress, maintenance of energy, improvement in endurance, and the like.
Effect of andrographolide on fatigue from water immersion and sleep disturbance was examined using a partially modified method of Tanaka et al. (Neuroscience Let. 352, 159-162, 2003). […] Blood serum was separated from the blood, and GOT (glutamic oxalacetic transaminase) and GPT (glutamic pyruvic transaminase) in the blood serum were measured with a small-sized biochemistry automatic analyzer (Model 7070, Hitachi High-Technologies Corporation). Further, levels of lipid peroxide from liver were measured as a level of TBARS (thiobarbituric acid reactive substances). […] Then, the TBARS levels were measured in accordance with the method of Ohkawa et al. Anal. Biochem. 95. […]

C=C1CC[C@@H]2[C@](C)(CO)[C@H](O)CC[C@@]2(C)[C@@H]1C/C=C1/C(=O)OC[C@H]1O [andrographolide]
prevented from increasing: GOT level in the blood serum (FIG. 2(A)) | GPT level in the blood serum (FIG. 2(B)) | liver TBARS level (FIG. 2(C))
